Experimental data from US20180185301A1, “PHARMACEUTICAL COMPOSITIONS COMPRISING POLYALKYLENE GLYCOL DERIVATIVES” (Symrise AG, priority 2015, published 2018).

Target: T1, PAR-2 (Homo sapiens, UniProt P55085)
T1 construct: human embryonic kidney 293 cells (HEK293) endogenously expressing PAR-2; endogenous in cells; host or cells: HEK293
T1 sequence (P55085 26-397): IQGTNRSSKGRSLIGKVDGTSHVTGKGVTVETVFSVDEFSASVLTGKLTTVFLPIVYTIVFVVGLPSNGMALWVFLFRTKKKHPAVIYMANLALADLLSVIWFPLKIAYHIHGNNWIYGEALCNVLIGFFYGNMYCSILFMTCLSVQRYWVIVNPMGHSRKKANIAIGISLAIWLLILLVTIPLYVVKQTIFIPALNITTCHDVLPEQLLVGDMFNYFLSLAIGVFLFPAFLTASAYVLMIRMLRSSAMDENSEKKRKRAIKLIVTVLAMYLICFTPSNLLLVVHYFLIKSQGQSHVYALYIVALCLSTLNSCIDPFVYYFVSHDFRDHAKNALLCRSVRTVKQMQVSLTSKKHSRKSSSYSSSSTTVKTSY
Test: In vitro PAR-2 assay (trypsin-evoked calcium signal, Fluo-4)
Assay type: cell-based
Conditions: for IC50: HEK293 cells endogenously expressing PAR-2, in the presence of 4 nM trypsin, calcium imaging
Procedure: Assay Principle: A cellular in vitro assay was developed with human embryonic kidney 293 cells (HEK293) endogenously expressing PAR-2. The PAR-2 activating protease trypsin (EC50: ˜1 nM) was used as an agonistic stimulus with subsequent Fluo-4 dependent intracellular calcium detection (calcium imaging).
A cell-based calcium assay was applied for the identification of PAR-2 antagonistic effects of polyethylene glycol esters and polyethylene glycol ethers. Functional modulation of PAR-2 by the tested compounds was measured and quantified using the calcium sensitive fluorescent probe Fluo-4 AM on a fluorescence microplate reader. Activation of PAR-2 by an agonist (trypsin) led to an increase in the intracellular calcium concentration and thus an increase in fluorescence intensity.
Human embryonic kidney 293 cells (HEK293) endogenously expressing PAR-2 were cultured in DMEM (high glucose) supplemented with tetracycline-free FCS (10% v/v), L-glutamine (4 mM), blasticidin (15 μg/ml), zeocin (100 μg/ml) and puromycin (2 μg/ml) in a water-saturated atmosphere at 37° C. and 5% CO2.
Cells were seeded onto 96-well clear-bottom black-walled assay plates at a density of 45.000 cells per well in 100 μl of cell culture medium. Intracellular calcium increase in the living cells due to receptor activation was monitored 24 h later using the calcium sensitive fluorescent probe Fluo-4 AM on a fluorescence microplate reader (FlexStation® system, Molecular Devices). […]
Medium was replaced with 150 μl KH buffer supplemented with sulfinpyrazone (250 μM). Subsequently, 50 μl KH buffer supplemented with the screening compounds or control substances were added and the cells were incubated for 10 min. under assay conditions in the microplate reader. Changes in fluorescence were recorded at 37° C. after addition of 50 μl KH buffer supplemented with the PAR-2 agonist trypsin (final concentration of 4 nM under measurement conditions).
Calcium mobilization was quantified as the change of peak fluorescence (ΔF) over the baseline level (F). The data was analysed with the software of the microplate reader. […]

Row | IC50 | EC50 (HEK293 cells, Fluo-4 calcium detection, read-out: EC50 of PAR-2 activating protease (agonistic stimulus)) | Substance
1 | 100 µM | – | PEG-5 Isononanoate
2 | – | ~0.001 µM | trypsin [reference compound]
3 | 65 µM | – | PEG-9 Tridecylether
